We go through twelve compounds from PubChem BioAssay (NCI).

The structures appear in SMILES notation. Where “and” joins values, the source holds several entries; their conditions need not be identical. Equal entries are not always repeated.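 Each compound was tested at five concentrations against cells in 96-well plates for 48 hours. Abbreviation: GI50, concentration required for 50% inhibition of growth. At the TGI there is no net growth.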

Among the test systems are SW-620 colon; A549 NSCLC; OVCAR-3 ovarian; UACC-62 melanoma; SF-539 CNS; HCT-15 colon; HOP-62 NSCLC; KM12 colon; NCI-H226 lung; HS 578T breast.
Common to all, as to test: NCI tumour cell line growth inhibition, 48 h

Turning to `COC(=O)C1=C(C(=O)OC)C2=S(SC3=C2CCCC3)S1` (stereo not drawn), the TGI in the assay with SW-620 colon is 13 µM; with A549 NSCLC, above 100 µM; with OVCAR-3 ovarian, 40.1 µM; in the assay on UACC-62 melanoma it was above 100 µM; in the assay on SF-539 CNS, 74 µM; with HCT-15 colon, 46.6 µM. Also, the TGI in the assay with HOP-62 NSCLC was above 100 µM; in the assay on KM12 colon, 97.6 µM.
Take `C[Si](C)(C)/C(I)=C/CO`: the TGI in the assay with SW-620 colon turned out to be 47.8 µM; in the assay on NCI-H226 lung, 39.3 µM; in the assay on A549 NSCLC, 76.3 µM; with OVCAR-3 ovarian, 73.1 µM; in the assay with UACC-62 melanoma, 52.9 µM; with SF-539 CNS, 39.9 µM. Moreover, the TGI in the assay with HCT-15 colon was 72.1 µM; in the assay with KM12 colon it was 60.8 µM.
Regarding `S=c1[nH]c2c(Cl)c(Cl)c(Cl)c(Cl)c2[nH]1`, the TGI in the assay with HS 578T breast is 69.4 µM; with SW-620 colon it was 49.2 µM; in the assay on A549 NSCLC, above 100 µM; in the assay on OVCAR-3 ovarian it was 97.3 µM; in the assay on UACC-62 melanoma, 33.3 µM; in the assay on SF-539 CNS, 26.3 µM. Further, the TGI in the assay with HCT-15 colon amounted to 53.5 µM; in the assay on HOP-62 NSCLC, 80.2 µM; in the assay with KM12 colon, 33.8 µM.
On to `[N-]=[N+]=N/C1=C/CCCCC(=O)C1`, for which the TGI in the assay on SW-620 colon, in the assay with A549 NSCLC, with UACC-62 melanoma, with HCT-15 colon and with HOP-62 NSCLC was above 100 µM each time.
Regarding `COc1ccc2c(c1)c[n+](C)c1c3cc(OC)c(OC)cc3ccc21`, the TGI is 3.13 µM and 3.76 µM with SW-620 colon; 14.8 µM and 25.9 µM in the assay with NCI-H226 lung; 10.3 µM in the assay with A549 NSCLC; 15 µM in the assay with OVCAR-3 ovarian; 23.9 µM in the assay with UACC-62 melanoma; 3.5 µM and 13.9 µM in the assay on SF-539 CNS. For the same compound, the TGI was 30 µM and > 74.1 µM with HCT-15 colon; 15.2 µM with HOP-62 NSCLC; 2.79 µM and 9.42 µM with KM12 colon. The GI50 in the assay with NCI-H226 lung is 4.22 µM and 12.1 µM; in the assay with SF-539 CNS it was 1.95 µM and 6.15 µM; in the assay with HOP-62 NSCLC, 4.63 µM; in the assay on KM12 colon, 1.21 µM and 2.88 µM.
As to `CC(=O)N1CCC(=O)/C(=C/c2ccccc2)C1`, the TGI was 34.8 µM in the assay with SW-620 colon; above 100 µM in the assay with NCI-H226 lung; above 100 µM in the assay on A549 NSCLC; 93.5 µM in the assay on OVCAR-3 ovarian; 82.7 µM in the assay with UACC-62 melanoma; above 100 µM in the assay with SF-539 CNS. The TGI was 48.2 µM in the assay on HCT-15 colon, above 100 µM in the assay with HOP-62 NSCLC and 51.6 µM with KM12 colon.
Turning to `CSc1ccccc1C#C/C=C\C#Cc1ccccc1N`, the GI50 in the assay with SW-620 colon is 3.72 µM; in the assay on NCI-H226 lung, 13.4 µM; in the assay with A549 NSCLC, 7.58 µM; in the assay on OVCAR-3 ovarian, 0.836 µM; in the assay with UACC-62 melanoma it was 7.83 µM; in the assay on SF-539 CNS, 7.2 µM. Moreover, the results for the GI50 with HCT-15 colon, in the assay with HOP-62 NSCLC and in the assay with KM12 colon were 6.65 µM, 5.39 µM and 2.92 µM, respectively. In addition, the TGI in the assay with SW-620 colon was determined as 14.8 µM; with NCI-H226 lung, 52 µM; with A549 NSCLC, 89.6 µM; in the assay on OVCAR-3 ovarian, 3.98 µM; in the assay with UACC-62 melanoma, 34.9 µM; with SF-539 CNS it was 23.6 µM. The TGI in the assay with HCT-15 colon is 32.5 µM; with HOP-62 NSCLC it was 26.3 µM; in the assay with KM12 colon it was 10.4 µM.
Turning to `COc1ccc(-c2cc(/C=C/C(=O)c3ccc(OC)c(OC)c3)[nH]n2)cc1`, the GI50 in the assay with HS 578T breast was 3.38 µM; with SW-620 colon, 1.35 µM; in the assay on A549 NSCLC, 1.88 µM; in the assay on OVCAR-3 ovarian, 1.19 µM; in the assay with UACC-62 melanoma, 1.65 µM; in the assay on SF-539 CNS, 1.27 µM. For the same compound, the GI50 in the assay on HCT-15 colon was 1.35 µM; with HOP-62 NSCLC it was 2.35 µM; with KM12 colon, 1.38 µM. The TGI in the assay with HS 578T breast is 29 µM; with SW-620 colon, 3.59 µM; in the assay with A549 NSCLC it was 5.95 µM; in the assay with OVCAR-3 ovarian, 2.47 µM; in the assay on UACC-62 melanoma, 3.35 µM; in the assay with SF-539 CNS, 2.61 µM. In addition, the results for the TGI in the assay on HCT-15 colon, in the assay with HOP-62 NSCLC and with KM12 colon were 3.56 µM, 6.17 µM and 3.11 µM, respectively.
`Cc1ccc(S(=O)OCc2c(C)c(C)c(COS(=O)c3ccc(C)cc3)c(C)c2C)cc1` (stereo not drawn): the TGI in the assay with SW-620 colon, in the assay with NCI-H226 lung, with A549 NSCLC, in the assay on OVCAR-3 ovarian, with UACC-62 melanoma and in the assay on SF-539 CNS was above 100 µM throughout. Besides, the TGI in the assay with HCT-15 colon, in the assay on HOP-62 NSCLC and in the assay with KM12 colon was above 100 µM throughout.
With `Oc1ccc2ccccc2c1N=Nc1ccc(Br)cc1`, the TGI in the assay with HS 578T breast, with SW-620 colon, in the assay with NCI-H226 lung, in the assay on A549 NSCLC, in the assay with OVCAR-3 ovarian and in the assay on UACC-62 melanoma was above 100 µM in each case. Further, the TGI in the assay with HCT-15 colon, in the assay on HOP-62 NSCLC and in the assay with KM12 colon was above 100 µM in each case.
Turning to `CN(C)c1ncnc2c1ncn2CCn1cnc2c(N(C)C)ncnc21`, the TGI in the assay with HS 578T breast, with SW-620 colon, with A549 NSCLC, with OVCAR-3 ovarian, in the assay with UACC-62 melanoma and with SF-539 CNS was above 100 µM throughout. Further, the TGI with HCT-15 colon, in the assay with HOP-62 NSCLC and with KM12 colon was above 100 µM in each case.
Consider `Cc1ccc(Nc2oc(-c3ccccc3)nc2[P+](c2ccccc2)(c2ccccc2)c2ccccc2)cc1`, for which the GI50 in the assay on HS 578T breast is 1.41 µM; with SW-620 colon it was 0.675 µM; in the assay on A549 NSCLC it was 0.938 µM; in the assay on OVCAR-3 ovarian, 0.299 µM; in the assay on UACC-62 melanoma it was 0.687 µM; in the assay on SF-539 CNS it was 1.59 µM. For the same compound, the GI50 was 0.64 µM with HCT-15 colon, 1.34 µM in the assay on HOP-62 NSCLC and 0.861 µM in the assay on KM12 colon. The TGI came out at 3.99 µM with HS 578T breast; 2.05 µM in the assay on SW-620 colon; 3.23 µM in the assay on A549 NSCLC; 1 µM in the assay on OVCAR-3 ovarian; 2.01 µM in the assay on UACC-62 melanoma; 3.02 µM in the assay with SF-539 CNS. Further, the TGI turned out to be 2.16 µM with HCT-15 colon, 3.24 µM in the assay with HOP-62 NSCLC and 2.46 µM with KM12 colon.
